Experimental data: the supplement of paper PMC10307832

What was measured:
Assay in all cases: relative viability (nuclei count vs DMSO), 5 days (fraction); higher = more cells survive
[1] = compound: C[As](C)SC[C@H](NC(=O)CC[C@H](N)C(=O)O)C(=O)NCC(=O)O [Darinaparsin] + N=C(N)NC(=N)NCCc1ccccc1 [Phenformin] (partner 250 µM)
Procedure, shortened: (§1)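 Dosing by pin tool came one day after lung cancer cell lines were seeded in 1536-well plates, using either one drug or a fixed anchor-drug dose plus five library-drug doses (not always all listed) in √10 steps. After 5 days, nuclei were counted on 4× images. Relative viability is treated-well nuclei count divided by vehicle-well nuclei count, and values are medians of duplicate plates.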

Darinaparsin + Olaparib = compound: C[As](C)SC[C@H](NC(=O)CC[C@H](N)C(=O)O)C(=O)NCC(=O)O [Darinaparsin] + O=C(c1cc(Cc2n[nH]c(=O)c3ccccc23)ccc1F)N1CCN(C(=O)C2CC2)CC1 [Olaparib] (partner 8 µM)
Procedure, shortened: as §1

QS11 + Phenformin = compound: C1CC2=C(C1)C=C(C=C2)OC3=NC(=C4C(=N3)N(C=N4)CC5=CC=C(C=C5)C6=CC=CC=C6)N[C@@H](CC7=CC=CC=C7)CO [QS11] + N=C(N)NC(=N)NCCc1ccccc1 [Phenformin] (partner 250 µM)
Procedure, shortened: as §1

AZ628 + Lapatinib = compound: CC1=C(C=C(C=C1)NC(=O)C2=CC(=CC=C2)C(C)(C)C#N)NC3=CC4=C(C=C3)N=CN(C4=O)C [AZ628] + CS(=O)(=O)CCNCc1ccc(-c2ccc3ncnc(Nc4ccc(OCc5cccc(F)c5)c(Cl)c4)c3c2)o1 [Lapatinib] (partner 2 µM)
Procedure, shortened: as §1

Cell Line	relative viability ([1]; first compound 0.08 µM)	relative viability ([1]; first compound 0.8 µM)	relative viability ([1]; first compound 2.53 µM)	relative viability ([1]; first compound 8 µM)	relative viability (Darinaparsin + Olaparib; first compound 0.08 µM)	relative viability (Darinaparsin + Olaparib; first compound 0.8 µM)	relative viability (Darinaparsin + Olaparib; first compound 2.53 µM)	relative viability (Darinaparsin + Olaparib; first compound 8 µM)	relative viability (QS11 + Phenformin; first compound 0.08 µM)	relative viability (QS11 + Phenformin; first compound 0.253 µM)	relative viability (QS11 + Phenformin; first compound 0.8 µM)	relative viability (QS11 + Phenformin; first compound 2.53 µM)	relative viability (QS11 + Phenformin; first compound 8 µM)	relative viability (AZ628 + Lapatinib; first compound 0.08 µM)	relative viability (AZ628 + Lapatinib; first compound 0.253 µM)	relative viability (AZ628 + Lapatinib; first compound 0.8 µM)	relative viability (AZ628 + Lapatinib; first compound 2.53 µM)	relative viability (AZ628 + Lapatinib; first compound 8 µM)
NCI-H2085	0.852	0.797	0.706	0.747	0.866	0.775	0.792	0.745	0.707	0.681	0.671	0.726	0.844	0.824	0.685	0.795	0.741	0.743
A549	0.121	0.114	0.192	0.163	0.416	0.337	0.31	0.471	0.115	0.256	0.154	0.125	0.197	1.13	0.839	0.676	0.835	0.536
NCI-H1395	0.457	0.471	0.409	0.459	0.457	0.441	0.407	0.404	0.397	0.437	0.425	0.457	0.453	1.04	1	0.942	0.933	0.916
NCI-H1666	0.623	0.545	0.617	0.575	0.734	0.746	0.834	0.72	0.556	0.519	0.55	0.479	0.398	0.759	0.58	0.521	0.477	0.539
NCI-H1650	0.472	0.416	0.494	0.395	0.956	0.718	0.95	0.801	0.374	0.472	0.376	0.474	0.391	1.24	0.795	0.79	0.498	0.68
NCI-H647	0.62	0.479	0.474	0.696	0.681	0.601	0.382	0.604	0.372	0.57	0.514	0.478	0.527	1.25	1.02	0.982	1.19	0.894
A-427	0.348	0.316	0.298	0.36	0.71	0.8	0.787	0.791	0.286	0.358	–	0.34	0.363	1.1	0.599	0.99	1.06	0.773
NCI-H1915	0.404	0.373	0.359	0.375	0.259	0.22	0.269	0.272	0.362	0.369	–	0.376	0.348	1.05	1	0.83	0.653	0.704
NCI-H1355	0.45	0.459	0.382	0.412	0.78	0.708	0.676	0.746	0.445	0.444	0.457	0.418	0.457	0.974	0.934	0.947	0.944	0.862
HCC-15	0.642	0.481	0.353	0.61	0.762	0.712	0.738	0.722	0.541	0.519	0.445	0.44	0.5	0.949	0.808	0.713	0.724	0.558
HCC-78	0.728	0.772	0.819	0.745	0.884	0.712	0.851	0.955	0.788	0.722	0.725	0.871	0.798	0.81	0.725	0.961	0.703	0.479
NCI-H23	0.935	0.839	0.86	0.842	0.293	0.291	0.363	0.331	0.769	0.779	0.853	0.678	0.877	1.18	0.958	0.698	0.722	0.528
NCI-H838	0.596	0.508	0.486	0.638	1.07	0.778	0.734	0.941	0.629	0.468	0.519	0.517	0.531	1.05	0.992	0.572	0.956	1.04
NCI-H1793	0.358	0.435	0.327	0.422	1	0.832	–	1.03	0.304	0.386	0.355	0.345	0.376	0.927	0.627	0.573	0.665	0.579
COR-L23	0.544	0.405	0.379	0.566	0.331	0.323	0.316	0.358	0.461	0.452	0.44	0.39	0.366	1.11	1.05	1.04	0.968	0.683
ABC-1	0.256	0.21	0.234	0.264	1.14	0.99	1.02	1.08	0.238	0.259	0.281	0.292	0.268	1.04	1.09	1.08	1.16	0.985
SW 1573	0.438	0.359	0.378	0.37	0.592	0.493	0.42	0.431	0.407	0.374	0.413	0.442	0.346	0.997	0.964	0.283	0.884	0.874
HARA	0.542	0.416	0.38	0.728	0.598	–	0.769	0.779	0.368	0.448	–	0.479	0.63	0.742	0.633	0.57	0.671	0.488

Cell Line	relative viability ([1]; first compound 0.08 µM)	relative viability ([1]; first compound 0.8 µM)	relative viability ([1]; first compound 2.53 µM)	relative viability ([1]; first compound 8 µM)	relative viability (Darinaparsin + Olaparib; first compound 0.08 µM)	relative viability (Darinaparsin + Olaparib; first compound 0.8 µM)	relative viability (Darinaparsin + Olaparib; first compound 2.53 µM)	relative viability (Darinaparsin + Olaparib; first compound 8 µM)	relative viability (QS11 + Phenformin; first compound 0.08 µM)	relative viability (QS11 + Phenformin; first compound 0.253 µM)	relative viability (QS11 + Phenformin; first compound 0.8 µM)	relative viability (QS11 + Phenformin; first compound 2.53 µM)	relative viability (QS11 + Phenformin; first compound 8 µM)	relative viability (AZ628 + Lapatinib; first compound 0.08 µM)	relative viability (AZ628 + Lapatinib; first compound 0.253 µM)	relative viability (AZ628 + Lapatinib; first compound 0.8 µM)	relative viability (AZ628 + Lapatinib; first compound 2.53 µM)	relative viability (AZ628 + Lapatinib; first compound 8 µM)
NCI-H1755	0.671	0.598	0.545	0.632	0.915	0.774	0.848	0.899	0.594	0.649	0.502	0.533	0.51	0.99	0.951	0.96	1.04	1.02
NCI-H460	0.553	0.557	0.506	0.884	0.614	0.413	0.435	0.324	0.556	0.498	0.477	0.442	0.227	1.08	0.868	0.853	0.87	0.559
NCI-H2170	0.429	0.427	0.424	0.464	0.722	0.662	0.614	0.543	0.436	0.404	0.399	0.44	0.392	0.3	0.279	0.248	0.268	0.278
NCI-H3122	0.435	0.328	0.378	0.411	0.796	0.589	0.572	0.791	0.376	0.399	–	0.384	0.322	0.975	0.733	0.733	0.684	0.435
COR-L 105	0.505	0.486	0.433	0.451	0.747	0.695	0.758	0.69	0.511	0.407	0.475	0.501	0.475	0.413	0.391	0.366	0.32	0.4
NCI-H2087	0.553	0.451	0.467	0.608	0.797	0.527	0.572	0.701	0.479	0.46	–	0.521	0.657	0.795	0.799	0.636	0.865	0.41
NCI-H1792	0.334	0.258	–	0.205	0.412	0.496	–	0.368	0.219	–	0.338	0.268	0.178	0.995	0.891	0.653	0.793	0.566
HCC-366	0.65	0.649	0.588	0.665	0.502	–	0.328	0.42	0.607	0.613	–	0.589	0.504	1.1	0.918	0.968	0.87	0.717
NCI-H2347	0.451	–	0.396	0.403	0.646	0.472	0.559	0.577	0.374	0.395	0.362	0.364	0.637	0.8	0.89	0.902	0.836	0.457
201T	0.478	0.451	0.404	0.5	0.942	0.851	0.803	0.863	0.468	0.399	0.4	0.414	0.376	1.01	0.988	1.06	1.12	1.18
NCI-H358	0.429	0.387	0.331	0.376	0.701	0.61	0.585	0.569	0.297	0.378	0.412	0.5	0.507	0.446	0.422	0.404	0.432	0.339
NCI-H1993	0.523	0.441	0.524	0.508	1.06	1.01	1.1	1.08	0.522	0.583	0.528	0.615	0.52	0.883	0.78	0.766	0.834	0.838
NCI-H2009	0.511	0.52	0.475	0.55	0.715	0.769	0.628	0.72	0.466	0.498	0.459	0.419	0.416	0.548	0.799	0.469	0.715	0.294
EMC-BAC-2	0.559	0.505	0.514	0.559	0.475	0.447	0.614	0.461	0.519	0.579	0.53	0.463	0.44	0.9	0.853	0.817	0.844	0.933
NCI-H2023	0.529	0.417	0.368	0.501	0.721	0.407	0.416	0.434	0.304	0.473	0.411	0.457	0.459	0.914	0.859	0.914	0.763	0.689
RERF-LC-KJ	0.495	0.447	0.369	0.434	1.12	0.859	0.924	0.775	0.407	0.41	0.438	0.378	0.315	0.825	0.837	0.846	0.839	0.888
H3255	0.381	0.384	0.363	0.332	0.644	0.518	0.606	0.632	0.341	0.351	–	0.418	0.363	0.258	0.256	0.292	0.269	0.251
HCC-827	0.41	0.417	0.331	0.435	0.784	0.638	0.65	0.759	0.447	0.416	0.366	0.478	0.547	0.238	0.172	0.208	0.191	0.191
